# Test results as given in article PMC8909834, “An Orally Bioavailable and Highly Efficacious Inhibitor of CDK9/FLT3 for the Treatment of Acute Myeloid Leukemia” (Cancers, 2022).
# Like-named read-outs stand apart in the source and are kept apart here.
# Assay: Pharmacokinetics in mice
# Assay type: in vivo, BALB/c hairy mice
# Protocol: Pharmacokinetics. The pharmacokinetics of CDDD11-8 was determined in mice after single oral (PO) and intravenous (IV) doses. CDDD11-8 was administered at a dose of 10 or 100 mg/kg PO or 2 mg/kg IV to BALB/c hairy mice (n = 10 per route of administration; both male and female). The IV dose consisted of CDDD11-8 dissolved in 10/90 N-methyl-2-pyrrolidone (NMP)/acetate buffer (pH 4.5), while the PO doses of CDDD11-8 were dissolved in acetate buffer at pH 4.74. At nominal times, up to three blood samples were collected from individual mice at non-consecutive times from the right cheek, left cheek, and heart of an individual mouse. The concentrations in these samples were measured by validated LC-MS/MS methods (limit of quantification = 5 ng/mL). Pharmacokinetic parameters were estimated after fitting compartmental models to the concentration–time data (Phoenix, Certara, NJ, USA). Specifically, a one-compartmental kinetic model with first-order input was used after an oral dose, and a two-compartmental model was fitted to the IV data. Acceptability of models was evaluated from values for Akaike Information Criterion (AIC), Schwarz’s Bayesian Criterion (SIB), and % Coefficient of Variance (CV) for parameters, where lower values were indicative of a better fit. Other considerations were variances in the concentrations of quality control samples and visual inspection of model fit. Oral bioavailability (F) was calculated from values of AUC after PO and IV administration after correcting for the differences in doses.
smiles,measurement,setting,value
Cc1cnc(N[C@H]2CC[C@H](N)CC2)nc1-c1cnc2ccc(-c3ccccc3)cn12 [CDDD11-8],oral bioavailability predicted from hepatic extraction,,about 43%
same,plasma exposure after 100 mg/kg PO relative to 10 mg/kg,,19 times
same,plasma exposure,PO 10 mg/kg,3.4 µM·h
same,plasma exposure,PO 100 mg/kg,64 µM·h
same,extraction by the liver,blood clearance vs hepatic blood flow 5.4 L/h.kg,~57%
same,clearance,"both sexes, BALB/c hairy, mouse, IV 2 mg/kg, plasma, ± standard error of the estimate, read-out: CL (converted)",36.8 mL/min/kg
same,concentration at 0.03 h,"both sexes, BALB/c hairy, mouse, plasma, IV 2 mg/kg, 0.03 h, read-out: Plasma Conc.",2290 ng/mL
same,concentration at 0.07 h,"both sexes, BALB/c hairy, mouse, plasma, IV 2 mg/kg, 0.07 h, read-out: Plasma Conc.",2150 ng/mL
same,concentration at 0.1 h,"both sexes, BALB/c hairy, mouse, plasma, IV 2 mg/kg, 0.10 h, read-out: Plasma Conc.",1310 ng/mL
same,concentration at 0.17 h,"both sexes, BALB/c hairy, mouse, plasma, IV 2 mg/kg, 0.17 h, read-out: Plasma Conc.",1070 ng/mL
same,concentration at 0.2 h,"both sexes, BALB/c hairy, mouse, plasma, IV 2 mg/kg, 0.20 h, read-out: Plasma Conc.",1020 ng/mL
same,concentration at 0.3 h,"both sexes, BALB/c hairy, mouse, plasma, IV 2 mg/kg, 0.30 h, read-out: Plasma Conc.",781 ng/mL
same,concentration at 0.53 h,"both sexes, BALB/c hairy, mouse, plasma, IV 2 mg/kg, 0.53 h, read-out: Plasma Conc.",367 ng/mL
same,concentration at 0.68 h,"both sexes, BALB/c hairy, mouse, plasma, IV 2 mg/kg, 0.68 h, read-out: Plasma Conc.",271 ng/mL
same,concentration at 1.4 h,"both sexes, BALB/c hairy, mouse, plasma, IV 2 mg/kg, 1.4 h, read-out: Plasma Conc.",132 ng/mL
same,concentration at 2.1 h,"both sexes, BALB/c hairy, mouse, plasma, IV 2 mg/kg, 2.1 h, read-out: Plasma Conc.",50 ng/mL
same,concentration at 3.4 h,"both sexes, BALB/c hairy, mouse, plasma, IV 2 mg/kg, 3.4 h, read-out: Plasma Conc.",20 ng/mL
same,concentration at 4.1 h,"both sexes, BALB/c hairy, mouse, plasma, IV 2 mg/kg, 4.1 h, read-out: Plasma Conc.",11 ng/mL
same,concentration at 5.4 h,"both sexes, BALB/c hairy, mouse, plasma, IV 2 mg/kg, read-out: Plasma Conc.",3 ng/mL
same,concentration at 6 h,"both sexes, BALB/c hairy, mouse, plasma, IV 2 mg/kg, 6 h, read-out: Plasma Conc.",3.2 ng/mL
same,concentration at 7 h,"both sexes, BALB/c hairy, mouse, plasma, IV 2 mg/kg, 7 h, read-out: Plasma Conc.",2.4 ng/mL
same,concentration at 7.7 h,"both sexes, BALB/c hairy, mouse, plasma, IV 2 mg/kg, 7.7 h, read-out: Plasma Conc.",2.8 ng/mL
same,concentration at 8 h,"both sexes, BALB/c hairy, mouse, plasma, IV 2 mg/kg, 8 h, read-out: Plasma Conc.",2.8 ng/mL
same,concentration at 8.8 h,"both sexes, BALB/c hairy, mouse, plasma, IV 2 mg/kg, 8.8 h, read-out: Plasma Conc.",2 ng/mL
same,concentration at 9.5 h,"both sexes, BALB/c hairy, mouse, plasma, IV 2 mg/kg, 9.5 h, read-out: Plasma Conc.",1.7 ng/mL
same,AUC,"both sexes, BALB/c hairy, mouse, plasma, IV 2 mg/kg, ± standard error of the estimate",906 ± 90 ng·h/mL
same,Vd,"both sexes, BALB/c hairy, mouse, plasma, IV 2 mg/kg, ± standard error of the estimate, read-out: Vss",1.71 ± 0.246 L/kg
same,half-life,"both sexes, BALB/c hairy, mouse, plasma, IV 2 mg/kg, ± standard error of the estimate, read-out: t½ (converted)",1.8 ± 0.3 h
same,concentration at 0.13 h,"both sexes, BALB/c hairy, mouse, plasma, PO 10 mg/kg, 0.13 h, read-out: Plasma Conc.",140 ng/mL
same,concentration at 0.28 h,"both sexes, BALB/c hairy, mouse, plasma, PO 10 mg/kg, 0.28 h, read-out: Plasma Conc.",300 ng/mL
same,concentration at 0.4 h,"both sexes, BALB/c hairy, mouse, plasma, PO 10 mg/kg, 0.40 h, read-out: Plasma Conc.",139 ng/mL
same,concentration at 0.65 h,"both sexes, BALB/c hairy, mouse, plasma, PO 10 mg/kg, 0.65 h, read-out: Plasma Conc.",389 ng/mL
same,concentration at 1.2 h,"both sexes, BALB/c hairy, mouse, plasma, PO 10 mg/kg, 1.2 h, read-out: Plasma Conc.",740 ng/mL
same,concentration at 1.9 h,"both sexes, BALB/c hairy, mouse, plasma, PO 10 mg/kg, 1.9 h, read-out: Plasma Conc.",356 ng/mL
same,concentration at 2.6 h,"both sexes, BALB/c hairy, mouse, plasma, PO 10 mg/kg, 2.6 h, read-out: Plasma Conc.",450 ng/mL
same,concentration at 3.3 h,"both sexes, BALB/c hairy, mouse, plasma, PO 10 mg/kg, 3.3 h, read-out: Plasma Conc.",95 ng/mL
same,concentration at 4 h,"both sexes, BALB/c hairy, mouse, plasma, PO 10 mg/kg, 4.0 h, read-out: Plasma Conc.",169 ng/mL
same,concentration at 4.7 h,"both sexes, BALB/c hairy, mouse, plasma, PO 10 mg/kg, 4.7 h, read-out: Plasma Conc.",34 ng/mL
same,concentration at 5.4 h,"both sexes, BALB/c hairy, mouse, plasma, PO 10 mg/kg, read-out: Plasma Conc.",17 ng/mL
same,concentration at 6.2 h,"both sexes, BALB/c hairy, mouse, plasma, PO 10 mg/kg, 6.2 h, read-out: Plasma Conc.",20 ng/mL
same,concentration at 6.8 h,"both sexes, BALB/c hairy, mouse, plasma, PO 10 mg/kg, 6.8 h, read-out: Plasma Conc.",3.4 ng/mL
same,concentration at 7.8 h,"both sexes, BALB/c hairy, mouse, plasma, PO 10 mg/kg, 7.8 h, read-out: Plasma Conc.",1.6 ng/mL
